Test results taken from patent publication US8916526B2, “Flavanone derivative” (National University Corporation Okayama University, priority 2009, dated 2014).
pIC50: −log10 of the molar value.

Legend:
[1] = tested on: VRE FN-1; assay: In vitro infectivity assay (MIC), broth dilution, Exp. Ex. 1-1; assay type: cell-based, enterococci; details: Enterococcus; VRE FN-1; Mueller-Hinton broth, 35° C., 24 hours; read-out: MIC VRE FN-1
How it was run: (§1)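 Three runs per strain; each used broth dilution per CLSI, an inoculum near 10^5 CUF/[…], 0.85% NaCl Mueller-Hinton broth, and 35° C. incubation over 24 hours before MIC reading.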

[2] = tested on: VRE NCTC12201; assay: as above; assay type: cell-based, enterococci; details: Enterococcus; VRE NCTC12201; Mueller-Hinton broth, 35° C., 24 hours; read-out: MIC VRE NCTC12201
How it was run: as §1

[3] = tested on: Methicillin sensitive S. aureus 209P; assay: In vitro infectivity assay (MIC), Exp. Ex. 2-1; assay type: cell-based, Staphylococcus aureus; details: Staphylococcus aureus, 209P / MSSA; Gram-positive; microdilution, MIC after 24 h; read-out: MIC MSSA 209P
How it was run: (§2)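 CLSI broth dilution; Mueller-Hinton + 0.85% NaCl; inoculum ~10^5 CUF/[…]; 35° C, 24 h; MIC read, n=3.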

[4] = tested on: Methicillin-resistant S. aureus COL; assay: In vitro infectivity assay (MIC), Exp. Ex. 2-1; assay type: cell-based, Staphylococcus aureus; details: Staphylococcus aureus, MRSA; Gram-positive; microdilution, MIC after 24 h
[5] = tested on: Methicillin-resistant S. aureus N315; assay: In vitro infectivity assay (MIC), Exp. Ex. 2-1; assay type: cell-based, Staphylococcus aureus; details: Staphylococcus aureus, MRSA; Gram-positive; microdilution, MIC after 24 h; read-out: MIC MRSA N315
How it was run: as §2

[6] = tested on: Methicillin-resistant S. aureus OM481; assay: In vitro infectivity assay (MIC), Exp. Ex. 2-1; assay type: cell-based, Staphylococcus aureus; details: Staphylococcus aureus, MRSA; Gram-positive; microdilution, MIC after 24 h; read-out: MIC MRSA OM481
How it was run: as §2

[7] = tested on: Methicillin-resistant S. aureus OM584; assay: In vitro infectivity assay (MIC), Exp. Ex. 2-1; assay type: cell-based, Staphylococcus aureus; details: Staphylococcus aureus, MRSA; Gram-positive; microdilution, MIC after 24 h; read-out: MIC MRSA OM584
How it was run: as §2

[8] = tested on: Streptococcus pneumoniae R6; assay: In vitro infectivity assay (MIC), Exp. Ex. 2-1; assay type: cell-based; details: Streptococcus pneumoniae, R6; Gram-positive; microdilution, MIC after 24 h; read-out: MIC S. Pneumoniae R6
[9] = biological target: T1, E. coli DNA gyrase (Escherichia coli, UniProt P0AES4+P0AES6); assay: DNA gyrase inhibition (supercoiling kit), Exp. Ex. 2-2; assay type: biochemical
T1 construct: purchased John Innes Enterprises #K0001
How it was run: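 IC50 derived from gel electrophoresis separating supercoiled from relaxed DNA. Reactions ran 30 minutes at 37° C with 1 U gyrase, […] relaxed pBR322, 1 mM ATP and 4 mM MgCl2 in Tris-HCl buffer (pH 7.5), then stopped with EDTA-containing solution.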

T1 sequence (P0AES4 whole entry, one chain of several): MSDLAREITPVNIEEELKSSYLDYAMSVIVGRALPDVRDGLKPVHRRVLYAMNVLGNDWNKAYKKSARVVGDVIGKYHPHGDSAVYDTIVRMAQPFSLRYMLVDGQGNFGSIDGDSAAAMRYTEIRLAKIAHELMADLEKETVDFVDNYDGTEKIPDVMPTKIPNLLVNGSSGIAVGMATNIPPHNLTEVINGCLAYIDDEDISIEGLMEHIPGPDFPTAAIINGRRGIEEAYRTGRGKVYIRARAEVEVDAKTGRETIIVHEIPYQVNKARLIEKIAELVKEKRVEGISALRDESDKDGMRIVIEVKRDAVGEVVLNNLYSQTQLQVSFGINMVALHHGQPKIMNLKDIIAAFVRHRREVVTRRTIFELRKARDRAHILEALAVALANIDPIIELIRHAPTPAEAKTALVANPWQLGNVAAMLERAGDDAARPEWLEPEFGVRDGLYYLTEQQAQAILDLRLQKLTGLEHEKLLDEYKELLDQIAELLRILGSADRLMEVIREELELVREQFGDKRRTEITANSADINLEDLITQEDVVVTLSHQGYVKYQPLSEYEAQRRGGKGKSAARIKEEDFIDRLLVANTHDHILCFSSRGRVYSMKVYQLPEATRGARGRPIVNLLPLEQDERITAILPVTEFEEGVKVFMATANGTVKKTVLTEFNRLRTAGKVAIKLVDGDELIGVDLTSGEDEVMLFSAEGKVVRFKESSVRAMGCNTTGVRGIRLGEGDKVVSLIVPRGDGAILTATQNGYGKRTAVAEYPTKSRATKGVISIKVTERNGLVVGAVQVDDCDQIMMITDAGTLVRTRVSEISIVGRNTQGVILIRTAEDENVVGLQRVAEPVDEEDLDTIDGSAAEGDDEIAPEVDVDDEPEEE

## O=c1c(O)c(-c2ccc(O)c(O)c2)oc2cc(O)cc(O)c12 [Quercetin, quercetin, reference compound]
[1]
  MIC: > 128 µg/mL
[2]
  MIC: > 128 µg/mL
[3]
  MIC: > 128 µg/mL
[4]
  MIC: > 128 µg/mL
[5]
  MIC: > 128 µg/mL
[6]
  MIC: > 128 µg/mL
[7]
  MIC: > 128 µg/mL
[8]
  MIC: > 128 µg/mL
[9]
  pIC50: 6.85
